Laboratory results published in patent US9163066B2, “Antimicrobial lytic peptides” (priority 2010, dated 2015).
Read-outs that look alike come from different tables or passages of the source.

Legend:
bacteria = test: Antibacterial activity of the peptides, broth microdilution MIC, mean activity (Table II); type: cell-based; details: overnight incubation (18 to 24 h)
Protocol: Minimum Inhibitory Concentration or MIC for the purpose of this invention is the lowest concentration of an antimicrobial that will inhibit the visible growth of a microorganism after overnight incubation. Minimum inhibitory concentrations are important in diagnostic laboratories to confirm resistance of microorganisms to an antimicrobial agent and also to monitor the activity of new antimicrobial agents. A MIC is generally regarded as the most basic laboratory measurement of the activity of an antimicrobial agent against an organism. MBC is defined as the lowest concentration of an antimicrobial agent needed to kill 99.9% of the initial organism inoculum. Presently, specific guidelines for interpretation are not available; therefore, a clinician knowledgeable in both bactericidal testing and infectious diseases should be available to interpret the results.
MICs were determined by the broth microdilution method described by the National Committee for Clinical Laboratory Standards (17). Serial twofold dilutions of each peptide solution were prepared (final volume, […]) in microtiter trays with appropriate medium. Each dilution series included control wells containing bacteria without peptide. A total of […] of the adjusted inoculum (100,000 organisms) was added to each well, and then the trays were incubated at
in ambient air overnight (18 to 24 h). The MIC of each peptide for each isolate was read as the lowest concentration of peptide that inhibited visible growth of the organism.
The above in vitro tests and analyses were conducted on a set of designed peptides of the present invention; and, for comparative purposes, naturally derived molecules.

[1] = test system: pathogens of cotton, poplar and pome fruits such as pears and apples; details: tested by a number of labs throughout the world; cited from earlier work
Aspergillus flavus = test: Antimicrobial activity against pathogens (MIC80 / MBC100); type: cell-based
From the text: (§1) A comparison of antimicrobial activity for these two naturally occurring peptides against various pathogens (combined fungal and bacterial) is summarized below

Erwinia stewartii = test: as above; type: cell-based; details: concentration necessary to kill 100%
From the text: as §1

Fusarium oxysporum = test: as above; type: cell-based; details: concentration necessary to kill 100%
From the text: as §1

Xanthomonas campestris = test: as above; type: cell-based
From the text: as §1

Fusarium moniliforme = test: as above; type: cell-based
From the text: as §1

Aspergillus fumigatus = test: as above; type: cell-based; details: concentration necessary to kill 100%
From the text: as §1

[2] = test system: red blood cells (erythrocytes); test: Hemolytic activity of the peptides (hemoglobin release, absorbance at 412 nm); type: cell-based
Protocol: Hemolysis as defined herein is an in vitro assay where the compounds tendency to lyse red blood cells is determined. Presumably, the compounds that are less hemolytic will be less toxic in vivo. Increasing amounts of compound are added to solutions containing red blood cells and left for a specified time and then lysis is determined spectrophotometrically by measuring hemoglobin release.
A small volume of a suspension of erythrocytes (about 100 million) is kept on ice with a specific amount of lytic peptide. The cells are then placed in a 37° C. water bath for 10 min, vortexed and centrifuged at 1000 g for 2 min. The supernatant was removed and the amount of hemoglobin that was released was determined by the samples' absorbance at 412 nm. Control values without added peptide were subtracted from the absorbance readings.
The numerical difference between the value of the mean of hemolysis and the mean of the activity is a useful way to determine those peptides having the most desired activity.

angiogenesis = details: known activity, seen as a safety problem for humans; cited from earlier work
[3] = concentration necessary to kill 100%
[4] = concentration of TP necessary to limit growth by 80%

Sequence | Mean Activity (bacteria) [µM] | efficacy in limiting plant pathogens [1] | D4E1 MBC100 (Aspergillus flavus; concentration of D4E1 necessary to kill 100% of the pathogens) [µM] | D4E1 MBC100 (Erwinia stewartii) [µM] | D4E1 MBC100 (Fusarium oxysporum) [µM] | D4E1 MBC100 (Xanthomonas campestris; [3]) [µM] | D4E1 MBC100 (Fusarium moniliforme; [3]) [µM] | D4E1 MBC100 (Aspergillus fumigatus) [µM] | Mean of Hemolysis [2] [µM] | TP MIC80 (Aspergillus flavus; [4]) [µM] | TP MIC80 (Xanthomonas campestris; [4]) [µM] | TP MIC80 (Fusarium moniliforme; [4]) [µM] | Mean of Hemolysis ([2]; erythrocytes, 37° C. for 10 min) [µM] | activities in mammals (angiogenesis)
FKLRAKIKVRLRAKIKL [D4E1, D4E1 (AgroMed), earlier synthetic lytic peptide tested by a number of labs] | 0.77 | efficacious in limiting pathogens of cotton, poplar and pome fruits | 12 | 1 | 3 | 2 | 3 | 12 | 3.6 |  |  |  |  | 
KWCFRVCYRGICYRRCR [TP, defensin-like peptide found in the hemolymph of the horseshoe crab] | 0.3 |  |  |  |  |  |  |  |  | 34 | 0.77 | 21 | 3 | 
RRRPRPPYLPRPRPPPFFPPRLPPRIPPGFPPRFPPRFP [PR39, antimicrobial peptide found in swine] |  |  |  |  |  |  |  |  |  |  |  |  |  | stimulation of angiogenesis
